The text below walks through data of patent US20240309005A1 (priority 2021, published 2024).

The conditions of series [1]: male, SD, in vivo.
A short description of series [2]: in vivo. Conditions: male, SD, rat; for bioavailability / Cmax: po, 30 mg/kg.
A further series in a line: physchem. Conditions: 25 °C, kinetic from dmso stock.
In the next series the target is CYP1A2 (Homo sapiens (Human), UniProt P05177). The experiment in a line: in vitro. To be noted: microsomes.
The next series addresses CYP2B6 (Homo sapiens (Human), UniProt P20813). The experiment in a line: in vitro. Conditions: microsomes.
A further series has as its target CYP2C9 (Homo sapiens (Human), UniProt P11712). Nature of the series: in vitro. Conditions: microsomes.
The next series deals with CYP2D6 (Homo sapiens (Human), UniProt P10635). Nature of the series: in vitro. To be noted: microsomes.
Chain of CYP2D6 (P10635 whole entry): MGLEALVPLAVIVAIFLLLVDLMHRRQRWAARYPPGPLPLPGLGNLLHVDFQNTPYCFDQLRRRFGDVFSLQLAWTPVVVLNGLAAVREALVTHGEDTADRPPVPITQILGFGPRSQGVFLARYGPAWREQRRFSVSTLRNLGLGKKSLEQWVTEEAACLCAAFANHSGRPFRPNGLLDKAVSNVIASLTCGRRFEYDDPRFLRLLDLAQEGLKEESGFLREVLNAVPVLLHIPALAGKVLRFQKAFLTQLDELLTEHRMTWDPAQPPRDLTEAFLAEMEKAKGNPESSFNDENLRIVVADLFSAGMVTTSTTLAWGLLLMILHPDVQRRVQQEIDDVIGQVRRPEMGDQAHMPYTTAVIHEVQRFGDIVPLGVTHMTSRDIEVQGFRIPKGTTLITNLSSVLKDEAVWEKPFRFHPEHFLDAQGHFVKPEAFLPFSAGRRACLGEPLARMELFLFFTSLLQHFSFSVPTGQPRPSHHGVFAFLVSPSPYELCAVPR
In the next series the test system is CYP3A4. The experiment in a line: in vitro. Conditions: human, microsomes.
A short description of series [3]: in vivo. To be noted: male, CD1, mouse; for Cmax / bioavailability: po, 30 mg/kg.

Converted amounts (≈) assume the structure as drawn.

Chain of CYP2B6 (P20813 whole entry): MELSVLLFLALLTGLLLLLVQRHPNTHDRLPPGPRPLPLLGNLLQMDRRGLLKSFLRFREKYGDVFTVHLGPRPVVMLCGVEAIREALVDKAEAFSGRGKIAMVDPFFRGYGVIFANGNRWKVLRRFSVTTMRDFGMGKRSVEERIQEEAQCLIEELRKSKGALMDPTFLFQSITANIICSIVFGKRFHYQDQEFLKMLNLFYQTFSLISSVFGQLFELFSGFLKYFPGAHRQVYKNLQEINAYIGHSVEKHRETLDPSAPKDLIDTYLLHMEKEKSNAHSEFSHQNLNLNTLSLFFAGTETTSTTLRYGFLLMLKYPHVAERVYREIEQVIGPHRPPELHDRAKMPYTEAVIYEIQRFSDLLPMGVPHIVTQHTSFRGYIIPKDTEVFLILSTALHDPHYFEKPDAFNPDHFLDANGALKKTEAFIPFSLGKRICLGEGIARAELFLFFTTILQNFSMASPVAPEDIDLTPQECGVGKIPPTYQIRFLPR
Chain of CYP2C9 (P11712 whole entry): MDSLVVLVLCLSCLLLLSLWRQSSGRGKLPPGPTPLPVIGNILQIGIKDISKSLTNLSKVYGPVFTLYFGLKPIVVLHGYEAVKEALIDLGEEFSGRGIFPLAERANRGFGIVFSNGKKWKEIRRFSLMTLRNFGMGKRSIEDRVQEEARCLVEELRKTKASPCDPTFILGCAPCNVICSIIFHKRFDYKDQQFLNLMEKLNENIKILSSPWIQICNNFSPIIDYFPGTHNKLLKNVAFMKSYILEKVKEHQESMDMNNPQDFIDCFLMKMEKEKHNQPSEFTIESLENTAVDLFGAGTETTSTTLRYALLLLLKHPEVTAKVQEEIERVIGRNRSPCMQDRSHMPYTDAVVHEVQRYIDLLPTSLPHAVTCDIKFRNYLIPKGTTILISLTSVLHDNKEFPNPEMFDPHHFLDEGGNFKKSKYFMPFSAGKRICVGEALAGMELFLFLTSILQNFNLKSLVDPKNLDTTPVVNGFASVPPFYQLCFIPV
Chain of CYP1A2 (P05177 whole entry): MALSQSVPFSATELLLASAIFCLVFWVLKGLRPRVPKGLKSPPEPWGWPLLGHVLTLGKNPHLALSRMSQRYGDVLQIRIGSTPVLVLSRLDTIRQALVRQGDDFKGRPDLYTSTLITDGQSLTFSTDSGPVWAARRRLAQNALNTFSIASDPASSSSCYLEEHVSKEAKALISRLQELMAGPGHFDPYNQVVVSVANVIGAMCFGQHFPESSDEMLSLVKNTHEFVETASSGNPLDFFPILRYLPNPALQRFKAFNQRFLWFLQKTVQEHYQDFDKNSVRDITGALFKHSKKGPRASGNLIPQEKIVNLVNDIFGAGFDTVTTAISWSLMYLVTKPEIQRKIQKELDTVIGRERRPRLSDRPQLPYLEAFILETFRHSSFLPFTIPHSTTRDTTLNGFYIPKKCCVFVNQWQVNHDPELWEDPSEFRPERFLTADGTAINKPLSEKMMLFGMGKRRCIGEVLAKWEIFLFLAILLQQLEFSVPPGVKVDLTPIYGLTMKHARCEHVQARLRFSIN

For the compound `Cc1n[nH]c2nc(-c3ccc(NS(=O)(=O)c4cc(F)ccc4F)c(Cl)c3)nc(NCCN(C)C)c12` [Compound 85, N-(2-chloro-4-(4-((2-(dimethylamino)ethyl)amino)-3-methyl-1H-pyrazolo[3,4-d]pyrimidin-6-yl)phenyl)-2,5-difluorobenzenesulfonamide], in series [1], the “pK Data in Rat: F” value is “Cmax = 2747 ng/mL F = 92%”. This compound also had a hERG/IC50 with hERG / SGK1 (whole cell) of 82. The half-life (in general, the time needed for the level to fall by half in the phase considered) in the series “in vivo [2]” was 3.6 h. Also, in “in vivo [2]”, the bioavailability (commonly dose-corrected exposure relative to a reference, in per cent) was 92%. Moreover, the Cmax in “in vivo [2]” (Cmax (ng/ml)) and in the series “in vivo [2]” (pK Data in Rat: Cmax) was 2750 ng/mL throughout. For the same compound, the solubility (usually the concentration that dissolves in the medium under given conditions) at 2 h in the series “physchem” (pH 5, fessif) came to 315 µM (≈ 164 µg/mL); in “physchem” (pH 7.4, aqueous buffer), 4.5 µM (≈ 2.35 µg/mL). The inhibition (commonly the change of the read-out against control, counted positive when it falls) at 20 min, 10 µM at CYP1A2 is -0.7%; against CYP2B6, 7.7%; against CYP2C9 it was 9.4%; against CYP2D6 it was 1.8%. Further, the inhibition at 5 min, 10 µM in the series on CYP3A4 came to 19%. Moreover, the inhibition at 10 min, 10 µM in the series with CYP3A4 was -2.9%.
On to `Cc1n[nH]c2nc(-c3ccc(NS(=O)(=O)c4cc(F)ccc4F)c(F)c3)nc(NCCN(C)C)c12` [Compound 84, N-[4-(4-[[2-(dimethylamino)ethyl]amino]-3-methyl-1H-pyrazolo[3,4-d]pyrimidin-6-yl)-2-fluorophenyl]-2,5-difluorobenzenesulfonamide], for which the “pK Data in Rat: F” value in series [1] is given as “Cmax = 2470 ng/mL F = 17.9%”. The compound also returned a hERG/IC50 with hERG / SGK1 (whole cell) of 177. Besides, the half-life was 2.3 h in “in vivo [3]” and 3.15 h in the series “in vivo [2]”. In addition, the Cmax (in general, the peak of the concentration-time curve) in the series “in vivo [3]” worked out at 621 ng/mL; in the series “in vivo [2]” (Cmax (ng/ml)) it was 2470 ng/mL; in the series “in vivo [2]” (pK Data in Rat: Cmax) it was 2470 ng/mL. Besides, the bioavailability in the series “in vivo [3]” came to 22%; in “in vivo [2]”, 17.9%. Also, the solubility at 2 h in the series “physchem” (pH 5, fessif) turned out to be 297 µM (≈ 150 µg/mL); in “physchem” (pH 7.4, aqueous buffer), 3.38 µM (≈ 1.71 µg/mL). In addition, the inhibition at 20 min, 10 µM against CYP1A2 was -0.9%; on CYP2B6, 1.2%; against CYP2C9, 2.2%; against CYP2D6, 0%. Further, the inhibition at 5 min, 10 µM in the series with CYP3A4 is 0.5%. Also, in the series on CYP3A4, the inhibition at 10 min, 10 µM worked out at 3%.
Regarding `Cc1n[nH]c2nc(-c3ccc(NS(=O)(=O)c4cc(Cl)ccc4F)cc3)nc(O[C@@H]3CCNCC3(F)F)c12` [Compound 44, (R)-5-chloro-N-(4-(4-((3,3-difluoropiperidin-4-yl)oxy)-3-methyl-1H-pyrazolo[3,4-d]pyrimidin-6-yl)phenyl)-2-fluorobenzenesulfonamide], the inhibition at 20 min, 10 µM against CYP1A2 was determined as 11%; against CYP2B6, 39%; on CYP2C9, 92%; at CYP2D6, 44%. For the same compound, the inhibition at 5 min, 10 µM with CYP3A4 was determined as 93%. Besides, in the series with CYP3A4, the inhibition at 10 min, 10 µM worked out at 91%.
With `Cc1n[nH]c2nc(-c3ccc(NS(=O)(=O)N4CCCC4)cc3)nc(OC3CCN(C(C)C)CC3)c12` [Compound 2, N-(4-(4-((1-isopropylpiperidin-4-yl)oxy)-3-methyl-1H-pyrazolo[3,4-d]pyrimidin-6-yl)phenyl)pyrrolidine-1-sulfonamide], the solubility at 2 h in the series “physchem” (pH 5, fessif) was determined as 291 µM (≈ 145 µg/mL); in the series “physchem” (pH 7.4, aqueous buffer) it was 59.1 µM (≈ 29.5 µg/mL). Besides, the inhibition at 20 min, 10 µM is 5.9% on CYP1A2, -5% against CYP2B6, 13% at CYP2C9 and 7.3% at CYP2D6. Moreover, the inhibition at 5 min, 10 µM in the series with CYP3A4 came out at 7%. The inhibition at 10 min, 10 µM in the series with CYP3A4 was 13%.
`Cc1n[nH]c2nc(-c3ccc(NS(=O)(=O)c4cc(Cl)ccc4F)cc3)nc(O[C@@H]3CCNC[C@@H]3F)c12` [Compound 29, 5-chloro-2-fluoro-N-(4-(4-(((3S,4R)-3-fluoropiperidin-4-yl)oxy)-3-methyl-1H-pyrazolo[3,4-d]pyrimidin-6-yl)phenyl)benzenesulfonamide] gave a hERG/IC50 in the series with hERG / SGK1 (whole cell) of 2476. Besides, the half-life was 1.04 h in “in vivo [3]” and 9.7 h in “in vivo [2]”. Also, the Cmax is 115 ng/mL in the series “in vivo [3]” and 16 ng/mL in “in vivo [2]” (Cmax (ng/ml)). Further, the results for the bioavailability in “in vivo [3]” and in “in vivo [2]” were 8% and 0.45%, respectively. Further, the solubility at 2 h was determined as 245 µM (≈ 131 µg/mL) in “physchem” (pH 5, fessif) and 3 µM (≈ 1.6 µg/mL) in the series “physchem” (pH 7.4, aqueous buffer). The inhibition at 20 min, 10 µM was 8.8% at CYP1A2, 26% on CYP2B6, 75% against CYP2C9 and 26% against CYP2D6. For the same compound, the inhibition at 5 min, 10 µM in the series with CYP3A4 was determined as 54%. Besides, in the series with CYP3A4, the inhibition at 10 min, 10 µM was 77%.
As to `Cc1n[nH]c2nc(-c3ccc(NS(=O)(=O)c4cc(C(F)(F)F)ccn4)cc3)nc(O[C@@H]3CCN(C)C[C@@H]3F)c12` [Compound 63, N-[4-(4-{[(3S,4R)-3-fluoro-1-methylpiperidin-4-yl]oxy}-3-methyl-1H-pyrazolo[3,4-d]pyrimidin-6-yl)phenyl]-4-(trifluoromethyl)pyridine-2-sulfonamide], the half-life in “in vivo [3]” is 12 h. This compound also returned a peak concentration (Cmax) in “in vivo [3]” of 1120 ng/mL. Moreover, the solubility at 2 h in the series “physchem” (pH 5, fessif) is 205 µM (≈ 116 µg/mL); in “physchem” (pH 7.4, aqueous buffer) it was 1.9 µM (≈ 1.07 µg/mL). Further, the inhibition at 20 min, 10 µM came to 2.4% against CYP1A2, 12% at CYP2B6, 65% against CYP2C9 and 7.5% against CYP2D6. The inhibition at 5 min, 10 µM in the series on CYP3A4 was -24%. For the same compound, the inhibition at 10 min, 10 µM with CYP3A4 was -2%.
